In PubChem BioAssay (NCI) one finds TGI and GI50 data, which are given here for 13 compounds.

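All cell lines were grown in 96-well plates and treated with compound for 48 hours. GI50 is the concentration that inhibits growth by half. Definition used: TGI = concentration required for complete inhibition of growth.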

Test systems include CCRF-CEM leukemia; SF-268 CNS; RXF 393 renal; BT-549 breast; M14 melanoma; NCI/ADR-RES ovarian; HOP-62 NSCLC; A549 NSCLC; NCI-H226 lung; HT29 colon; HOP-92 NSCLC; OVCAR-4 ovarian.
Holding throughout (test): inhibition of tumour cell growth, NCI panel, 48 h

With `S=C1NC2=C(COc3ccccc32)C(c2ccc(Cl)cc2)N1` (stereo not given), the TGI with CCRF-CEM leukemia came to 64.7 µM; in the test on SF-268 CNS, 39.7 µM; in the test with RXF 393 renal, 37.4 µM; with BT-549 breast, 41.5 µM; in the test with M14 melanoma it was 34.5 µM; with NCI/ADR-RES ovarian, 41.3 µM. Besides, the TGI was found to be 31 µM in the test on HOP-62 NSCLC, 48.2 µM in the test on A549 NSCLC, 36 µM in the test with NCI-H226 lung and 31.7 µM in the test with HT29 colon.

For the compound `COC(=O)N1CC(=O)C(C(=O)NC23CC4CC(CC(C4)C2)C3)C1` (stereo not given), the TGI with CCRF-CEM leukemia, in the test on SF-268 CNS, in the test with RXF 393 renal, with BT-549 breast, in the test with M14 melanoma and with NCI/ADR-RES ovarian was above 100 µM in each case. Also, the TGI in the test with HOP-92 NSCLC, in the test with OVCAR-4 ovarian, in the test on A549 NSCLC, with NCI-H226 lung and in the test on HT29 colon was above 100 µM in each case.

As to `Cc1cc(S(=O)(=O)N2CCNNC2=O)c(S)cc1Cl`, the TGI with CCRF-CEM leukemia is above 100 µM; in the test on SF-268 CNS it was above 100 µM; with RXF 393 renal, 40.9 µM; with BT-549 breast, 64.2 µM; with M14 melanoma, above 100 µM; in the test on NCI/ADR-RES ovarian it was above 100 µM. The TGI in the test with HOP-92 NSCLC, in the test on OVCAR-4 ovarian, in the test on A549 NSCLC and in the test on NCI-H226 lung was above 100 µM throughout.

Take `C=CC(O)(CBr)CCC(Br)C(=C)C` (stereo not given): the TGI in the test on CCRF-CEM leukemia, in the test on SF-268 CNS, in the test with RXF 393 renal, with BT-549 breast, in the test with M14 melanoma and in the test on NCI/ADR-RES ovarian was above 10 µM throughout. For the same compound, the TGI in the test on OVCAR-4 ovarian, in the test with HOP-62 NSCLC, in the test with A549 NSCLC, in the test on NCI-H226 lung and in the test with HT29 colon was above 10 µM each time.

Regarding `Clc1cc2nn(C3CCCCO3)nc2cc1Cl` (stereo not given), the TGI in the test on CCRF-CEM leukemia, in the test with RXF 393 renal, in the test on BT-549 breast, in the test on M14 melanoma, in the test on NCI/ADR-RES ovarian and with OVCAR-4 ovarian was above 100 µM in each case. The TGI with HOP-62 NSCLC, with A549 NSCLC, with NCI-H226 lung and in the test with HT29 colon was above 100 µM throughout.

For the compound `CSC1NC(c2ccccc2)=C(C#N)C(=O)N1C1OCC(OC(C)=O)C(OC(C)=O)C1OC(C)=O` (stereo not given), the TGI with SF-268 CNS, in the test with RXF 393 renal, with BT-549 breast, in the test with M14 melanoma, in the test with NCI/ADR-RES ovarian and with HOP-92 NSCLC was above 100 µM in each case. For the same compound, the TGI in the test on OVCAR-4 ovarian, in the test on HOP-62 NSCLC, with A549 NSCLC, in the test on NCI-H226 lung and in the test on HT29 colon was above 100 µM throughout.

Take `Nc1ccc2[nH]c(-c3cccc(C(F)(F)F)c3)cc(=O)c2c1`: the TGI with CCRF-CEM leukemia was 59.9 µM; with BT-549 breast, above 100 µM; with M14 melanoma, above 100 µM; in the test on NCI/ADR-RES ovarian, above 100 µM; with HOP-92 NSCLC, above 100 µM; in the test with OVCAR-4 ovarian, above 100 µM. In addition, the TGI with HOP-62 NSCLC, in the test with A549 NSCLC and in the test with HT29 colon was above 100 µM in each case. Moreover, the GI50 with OVCAR-4 ovarian is 62.9 µM.

Consider `COC(=O)C1CCN(C(=O)OC(C)(C)C)CC1`, for which the TGI in the test with CCRF-CEM leukemia, in the test on SF-268 CNS, in the test on BT-549 breast, in the test on M14 melanoma, in the test with NCI/ADR-RES ovarian and in the test on HOP-92 NSCLC was above 100 µM each time. The TGI in the test with OVCAR-4 ovarian, in the test with HOP-62 NSCLC, in the test on A549 NSCLC and in the test with HT29 colon was above 100 µM each time.

For `COc1cc(CSc2ccc(O)cc2)cc(OC)c1OC`, the TGI was above 100 µM in the test with SF-268 CNS; above 100 µM in the test with RXF 393 renal; 48.3 µM with BT-549 breast; above 100 µM in the test with M14 melanoma; 83.6 µM in the test with NCI/ADR-RES ovarian; 71.3 µM in the test on HOP-92 NSCLC. For the same compound, the TGI in the test on HOP-62 NSCLC, with A549 NSCLC, in the test with NCI-H226 lung and with HT29 colon was above 100 µM in each case.

Regarding `Cc1c(C)c(C)c(Cn2[nH]c(=O)n(C)c2=O)c(C)c1C`, the TGI in the test with CCRF-CEM leukemia, in the test with SF-268 CNS, in the test on BT-549 breast, in the test with M14 melanoma, with NCI/ADR-RES ovarian and with HOP-92 NSCLC was above 100 µM throughout. Besides, the TGI in the test with HOP-62 NSCLC, with A549 NSCLC, with NCI-H226 lung and in the test on HT29 colon was above 100 µM in each case.

As to `CCOC(=O)c1nc2ccc(C(F)(F)F)cc2nc1Nc1cc(OC)c(OC)c(OC)c1`, the TGI in the test with CCRF-CEM leukemia, in the test on SF-268 CNS, in the test with RXF 393 renal, in the test with BT-549 breast, with M14 melanoma and in the test on NCI/ADR-RES ovarian was above 100 µM in each case. Also, the TGI in the test on HOP-92 NSCLC, with HOP-62 NSCLC, with A549 NSCLC and in the test with HT29 colon was above 100 µM each time.

In the case of `CCOC(=O)NN(C(=O)OCC)C(C(=O)C1=CCCCC1)N(NC(=O)OCC)C(=O)OCC`, the TGI with SF-268 CNS, with RXF 393 renal, in the test with BT-549 breast, with M14 melanoma, with NCI/ADR-RES ovarian and in the test on HOP-92 NSCLC was above 100 µM in each case. The TGI in the test with OVCAR-4 ovarian, in the test with HOP-62 NSCLC, in the test on A549 NSCLC, in the test with NCI-H226 lung and in the test with HT29 colon was above 100 µM throughout.

With `OC1c2ccccc2CCC1CN1CCN(CCOC(c2ccc(F)cc2)c2ccc(F)cc2)CC1` (stereo not given), the TGI in the test on CCRF-CEM leukemia came out at 15.1 µM; in the test with SF-268 CNS, 39 µM; in the test on RXF 393 renal, 19.3 µM; with BT-549 breast, 25.1 µM; in the test on M14 melanoma it was 27.6 µM; in the test with NCI/ADR-RES ovarian it was 35.3 µM. Also, the TGI with HOP-92 NSCLC is 24.4 µM; in the test on OVCAR-4 ovarian it was above 100 µM; with HOP-62 NSCLC, 60.5 µM; in the test on A549 NSCLC, above 100 µM; in the test with NCI-H226 lung, 28.3 µM.
